Earlier results, collected in US20170266197A1, “METHODS AND COMPOSITIONS FOR TREATING HEPATITIS B VIRUS INFECTIONS” (Indiana University Research and Technology Corporation, priority 2014, published 2017).

Test system: chronic hepatitis B infection

alpha interferon
patients who show a long term benefit (many patients relapse after treatment is stopped): about 30% | patients who respond to the treatment (of the chronic carriers obtaining this therapy): about 40% | viral disappearance in treated patients (treated patients): 10-20%
